According to US20030212074A1, “Phosphate transport inhibitors” (priority 2000, published 2003):
pIC50: −log10 of the molar value.

tested on: Sodium-dependent phosphate transport; assay: Phosphate uptake assay in human proximal tubule cells (32P-labelled inorganic phosphate uptake); assay type: cell-based; conditions: whole cell assay, 32P uptake
Method: Sodium-dependent phosphate transport inhibition is determined by the ability of the test compound to inhibit the uptake of radio-labeled inorganic phosphate by proximal tubule cells. Appropriate cells from human, rabbit, or rat may be used.
Cell Preparation and Phosphate Uptake Assay.
Rabbit proximal tubule cells were isolated and cultured according to the procedure of Sakhrani, L. M. et al., Am. J. Physiol. 246:F757-F764, (1984) whose disclosure is incorporated herein by reference in its entirety. Human proximal tubule cells were purchased from Clonetics (San Diego, Calif.) and grown according to the suppliers' instructions. On the day of the experiment, cells were harvested from culture plates with 0.5 mM EDTA in phosphate buffered saline. The cells were washed twice in uptake buffer (see below) and equilibrated at 37 C in the same buffer for 30 minutes. Aliquots of cells (100 ul, 0.5 to 1 million cells) were distributed into glass test tubes. Fifty ul of drug solution or buffer were added followed by 50 ul of uptake buffer containing 100 uM [^32P]-K2HPO4 (0.5 to 1 uCi/tube).After varying periods of time (usually 4 minutes) at 37 C, uptakes were stopped with 4 ml of cold stop solution (see below) and the cells were washed 3 times in this solution by centrifugation. The pelleted cells were dissolved in 0.5 ml 1 N NaOH and ^32P was counted in a liquid scintillation counter. Phosphate uptake is expressed as pmol phosphate/mg cell protein.
In the above noted whole cell assay system for rabbit and human proximal tubule cells the cells are harvested by filtration and ^32P uptake is measured. It is also possible to use ^33P rather than ^32P.

pIC50	Compound
4.92	O=C(Nc1ccc(Br)cc1)c1cc(Br)ccc1NS(=O)(=O)c1ccc(Cl)s1 [5-bromo-N-(4-bromophenyl)-2-(5-chloro-2-thienylsulfonamido)benzamide]
4.85	O=C(Nc1ccc(Br)cc1)c1cc(Br)ccc1NS(=O)(=O)CCCCl [5-bromo-N-(4-bromophenyl)-2-(3-chloropropylsulfonamido)benzamide]
4.82	O=C(Nc1ccc(Br)cc1)c1cc(Br)ccc1NS(=O)(=O)c1ccccc1F [5-bromo-N-(4-bromophenyl)-2-(2-fluorophenylsulfonamido)benzamide]
